Source: the kinase profiling compilation of Christmann-Franck et al. (2016)

Assays:
Assay in all cases: radiometric filter-binding kinase assay, Kinase HotSpot
Details in all cases: compound 0.5 µM; ATP 10 µM
[1] = target: AKT3 (human) (UniProt Q9Y243)
[2] = target: CAMK1D (human) (UniProt Q8IU85)
[3] = target: CAMK2D (human) (UniProt Q13557)
[4] = target: CAMKK2 (human) (UniProt Q96RR4)
[5] = target: CDC42BPA (human) (UniProt Q5VT25)
[6] = target: CDK7 CCNH MNAT1 (human) (UniProt P50613+P51948+P51946)
[7] = target: CHUK (human) (UniProt O15111)
[8] = target: CSNK1A1 (human) (UniProt P48729)
[9] = target: CSNK1G2 (human) (UniProt P78368)
[10] = target: DYRK2 (human) (UniProt Q92630)
[11] = target: EGFR (human) (UniProt P00533)
[12] = target: EPHA6 (human) (UniProt Q9UF33)
[13] = target: EPHB2 (human) (UniProt P29323)
[14] = target: ERBB4 (human) (UniProt Q15303)
[15] = target: GRK5 (human) (UniProt P34947)
[16] = target: GRK6 (human) (UniProt P43250)
[17] = target: GRK7 (human) (UniProt Q8WTQ7)
[18] = target: HIPK1 (human) (UniProt Q86Z02)
[19] = target: HIPK2 (human) (UniProt Q9H2X6)
[20] = target: INSRR (human) (UniProt P14616)
[21] = target: JAK1 JH1 catalytic (human) (UniProt P23458)
[22] = target: MAPK10 (human) (UniProt P53779)
[23] = target: MARK1 (human) (UniProt Q9P0L2)
[24] = target: MATK (human) (UniProt P42679)
[25] = target: MKNK2 (human) (UniProt Q9HBH9)
[26] = target: NEK1 (human) (UniProt Q96PY6)
[27] = target: NUAK1 (human) (UniProt O60285)
[28] = target: PAK6 (human) (UniProt Q9NQU5)
[29] = target: PHKG1 (human) (UniProt Q16816)
[30] = target: PLK2 (human) (UniProt Q9NYY3)
[31] = target: PRKACG (human) (UniProt P22612)
[32] = target: PTK6 (human) (UniProt Q13882)
[33] = target: RPS6KA1 KD1 KD2 (human) (UniProt Q15418)
[34] = target: STK24 (human) (UniProt Q9Y6E0)
[35] = target: STK38 (human) (UniProt Q15208)
[36] = target: TAOK2 (human) (UniProt Q9UL54)
[37] = target: TAOK3 (human) (UniProt Q9H2K8)
[38] = target: TEC (human) (UniProt P42680)
[39] = target: TLK2 (human) (UniProt Q86UE8)
[40] = target: TTK (human) (UniProt P33981)
[41] = target: ULK3 (human) (UniProt Q6PHR2)
[42] = target: CDK3 CCNE1 (human) (UniProt Q00526+P24864)

Chain of STK38 (human) (Q15208 whole entry, looked up): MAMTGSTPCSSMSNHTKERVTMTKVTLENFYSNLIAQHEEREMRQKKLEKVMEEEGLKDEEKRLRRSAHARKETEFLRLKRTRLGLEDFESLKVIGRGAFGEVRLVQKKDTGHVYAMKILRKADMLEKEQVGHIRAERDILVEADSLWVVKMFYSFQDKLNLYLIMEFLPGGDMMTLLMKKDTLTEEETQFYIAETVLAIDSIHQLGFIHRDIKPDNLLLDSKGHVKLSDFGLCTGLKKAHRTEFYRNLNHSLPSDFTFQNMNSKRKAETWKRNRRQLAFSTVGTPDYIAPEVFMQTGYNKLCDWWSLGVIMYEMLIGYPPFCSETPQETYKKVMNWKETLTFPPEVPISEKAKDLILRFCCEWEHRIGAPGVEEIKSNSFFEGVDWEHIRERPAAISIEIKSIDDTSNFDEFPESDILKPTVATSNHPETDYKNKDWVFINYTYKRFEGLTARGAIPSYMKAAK
Chain of GRK5 (human) (P34947 whole entry, looked up): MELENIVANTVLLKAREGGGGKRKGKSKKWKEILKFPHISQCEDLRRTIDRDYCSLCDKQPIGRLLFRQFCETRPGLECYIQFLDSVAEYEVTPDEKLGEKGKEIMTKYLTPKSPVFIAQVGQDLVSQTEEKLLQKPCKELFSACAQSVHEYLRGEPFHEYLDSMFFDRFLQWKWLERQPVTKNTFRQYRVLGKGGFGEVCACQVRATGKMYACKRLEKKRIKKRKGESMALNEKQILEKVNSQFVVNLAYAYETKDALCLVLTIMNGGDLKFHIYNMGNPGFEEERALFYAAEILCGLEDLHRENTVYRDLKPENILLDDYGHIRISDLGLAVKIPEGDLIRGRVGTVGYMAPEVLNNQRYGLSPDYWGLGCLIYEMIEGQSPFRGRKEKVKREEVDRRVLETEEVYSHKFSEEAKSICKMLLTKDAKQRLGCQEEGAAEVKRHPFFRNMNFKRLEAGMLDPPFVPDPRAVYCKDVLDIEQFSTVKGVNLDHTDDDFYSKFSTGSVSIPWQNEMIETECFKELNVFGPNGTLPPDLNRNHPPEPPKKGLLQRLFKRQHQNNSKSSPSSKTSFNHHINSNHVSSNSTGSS
Chain of EGFR (human) (P00533 whole entry, looked up): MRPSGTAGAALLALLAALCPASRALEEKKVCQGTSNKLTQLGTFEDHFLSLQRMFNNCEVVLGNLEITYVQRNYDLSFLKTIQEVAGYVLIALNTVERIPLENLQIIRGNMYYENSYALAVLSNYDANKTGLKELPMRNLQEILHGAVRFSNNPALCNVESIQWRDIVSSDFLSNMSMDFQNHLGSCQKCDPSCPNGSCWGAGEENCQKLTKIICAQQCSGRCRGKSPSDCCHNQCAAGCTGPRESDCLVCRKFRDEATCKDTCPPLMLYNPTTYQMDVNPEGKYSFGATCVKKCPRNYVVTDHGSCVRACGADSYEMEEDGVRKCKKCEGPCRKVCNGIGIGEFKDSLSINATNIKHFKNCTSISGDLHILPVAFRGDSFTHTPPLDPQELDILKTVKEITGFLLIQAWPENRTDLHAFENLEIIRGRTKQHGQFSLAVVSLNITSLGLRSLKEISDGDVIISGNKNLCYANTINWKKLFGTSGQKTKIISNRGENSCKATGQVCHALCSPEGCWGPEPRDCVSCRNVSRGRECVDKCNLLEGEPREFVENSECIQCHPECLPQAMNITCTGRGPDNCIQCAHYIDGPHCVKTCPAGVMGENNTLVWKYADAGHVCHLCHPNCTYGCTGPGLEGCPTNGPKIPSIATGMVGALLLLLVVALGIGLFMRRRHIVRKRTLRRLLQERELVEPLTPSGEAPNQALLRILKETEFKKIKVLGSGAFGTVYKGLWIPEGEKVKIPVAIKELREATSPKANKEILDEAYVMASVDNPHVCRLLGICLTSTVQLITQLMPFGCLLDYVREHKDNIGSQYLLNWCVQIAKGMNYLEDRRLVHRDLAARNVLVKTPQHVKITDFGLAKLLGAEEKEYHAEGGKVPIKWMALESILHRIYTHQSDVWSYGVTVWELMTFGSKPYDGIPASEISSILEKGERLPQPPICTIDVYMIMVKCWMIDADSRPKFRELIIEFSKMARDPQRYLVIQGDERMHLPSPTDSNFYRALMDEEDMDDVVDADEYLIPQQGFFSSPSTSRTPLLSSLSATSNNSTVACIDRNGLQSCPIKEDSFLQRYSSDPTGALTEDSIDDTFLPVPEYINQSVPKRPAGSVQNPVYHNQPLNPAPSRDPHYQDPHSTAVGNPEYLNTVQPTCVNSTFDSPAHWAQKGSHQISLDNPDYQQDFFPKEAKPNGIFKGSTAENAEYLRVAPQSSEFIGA
Chain of GRK7 (human) (Q8WTQ7 whole entry, looked up): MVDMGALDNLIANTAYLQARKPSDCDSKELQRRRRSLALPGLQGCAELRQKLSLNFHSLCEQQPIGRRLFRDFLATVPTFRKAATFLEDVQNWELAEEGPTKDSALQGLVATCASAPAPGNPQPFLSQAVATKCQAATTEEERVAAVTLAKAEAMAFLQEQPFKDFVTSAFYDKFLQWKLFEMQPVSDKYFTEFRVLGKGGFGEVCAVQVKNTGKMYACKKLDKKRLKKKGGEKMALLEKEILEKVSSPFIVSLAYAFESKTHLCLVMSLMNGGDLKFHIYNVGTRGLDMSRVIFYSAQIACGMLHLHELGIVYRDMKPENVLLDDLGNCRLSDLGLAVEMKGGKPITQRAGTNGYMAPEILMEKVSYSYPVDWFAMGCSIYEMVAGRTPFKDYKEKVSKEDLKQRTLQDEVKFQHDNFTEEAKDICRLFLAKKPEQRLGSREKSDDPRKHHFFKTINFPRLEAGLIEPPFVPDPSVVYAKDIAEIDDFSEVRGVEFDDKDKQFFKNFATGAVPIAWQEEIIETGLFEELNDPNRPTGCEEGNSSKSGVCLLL
Chain of PRKACG (human) (P22612 whole entry, looked up): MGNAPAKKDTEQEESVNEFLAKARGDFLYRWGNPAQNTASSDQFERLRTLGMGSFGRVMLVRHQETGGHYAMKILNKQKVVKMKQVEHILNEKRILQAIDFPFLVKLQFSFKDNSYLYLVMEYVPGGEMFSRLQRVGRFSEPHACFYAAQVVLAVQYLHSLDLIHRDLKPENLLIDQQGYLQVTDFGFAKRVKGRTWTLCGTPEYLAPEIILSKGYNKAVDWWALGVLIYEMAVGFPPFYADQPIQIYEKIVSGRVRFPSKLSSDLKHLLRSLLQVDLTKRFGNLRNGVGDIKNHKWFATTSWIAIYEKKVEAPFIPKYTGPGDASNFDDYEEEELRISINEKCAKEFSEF
Chain of TAOK2 (human) (Q9UL54 whole entry, looked up): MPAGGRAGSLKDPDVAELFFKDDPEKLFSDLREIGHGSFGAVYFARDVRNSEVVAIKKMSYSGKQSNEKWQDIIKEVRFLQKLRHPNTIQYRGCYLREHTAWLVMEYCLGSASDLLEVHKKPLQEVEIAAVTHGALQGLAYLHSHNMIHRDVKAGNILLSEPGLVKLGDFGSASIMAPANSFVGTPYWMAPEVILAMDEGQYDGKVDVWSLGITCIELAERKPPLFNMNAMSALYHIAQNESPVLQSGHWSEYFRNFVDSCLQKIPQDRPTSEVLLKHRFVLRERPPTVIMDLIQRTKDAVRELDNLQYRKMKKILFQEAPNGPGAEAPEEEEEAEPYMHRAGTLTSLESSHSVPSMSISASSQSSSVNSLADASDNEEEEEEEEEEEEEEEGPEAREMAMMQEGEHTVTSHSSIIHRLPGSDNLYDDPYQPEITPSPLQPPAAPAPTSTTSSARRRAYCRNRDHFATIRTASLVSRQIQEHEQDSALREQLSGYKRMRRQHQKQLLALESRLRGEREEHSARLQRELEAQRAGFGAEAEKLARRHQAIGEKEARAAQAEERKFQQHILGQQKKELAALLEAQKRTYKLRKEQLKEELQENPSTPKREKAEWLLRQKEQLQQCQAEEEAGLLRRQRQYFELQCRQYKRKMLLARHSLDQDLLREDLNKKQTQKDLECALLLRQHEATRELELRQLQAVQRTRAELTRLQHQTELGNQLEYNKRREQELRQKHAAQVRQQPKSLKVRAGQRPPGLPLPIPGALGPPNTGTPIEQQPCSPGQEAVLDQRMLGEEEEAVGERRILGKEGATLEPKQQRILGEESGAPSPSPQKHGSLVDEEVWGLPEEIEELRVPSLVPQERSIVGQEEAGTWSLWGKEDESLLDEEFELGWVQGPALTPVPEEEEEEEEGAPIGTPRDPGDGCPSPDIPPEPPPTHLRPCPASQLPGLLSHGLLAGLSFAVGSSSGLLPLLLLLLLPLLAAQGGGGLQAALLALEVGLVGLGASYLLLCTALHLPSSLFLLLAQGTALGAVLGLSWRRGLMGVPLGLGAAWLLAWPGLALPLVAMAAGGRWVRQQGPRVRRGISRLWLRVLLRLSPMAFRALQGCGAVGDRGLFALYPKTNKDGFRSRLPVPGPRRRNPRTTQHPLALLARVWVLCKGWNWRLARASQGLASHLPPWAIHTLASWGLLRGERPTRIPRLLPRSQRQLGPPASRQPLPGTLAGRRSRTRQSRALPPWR
Chain of MATK (human) (P42679 whole entry, looked up): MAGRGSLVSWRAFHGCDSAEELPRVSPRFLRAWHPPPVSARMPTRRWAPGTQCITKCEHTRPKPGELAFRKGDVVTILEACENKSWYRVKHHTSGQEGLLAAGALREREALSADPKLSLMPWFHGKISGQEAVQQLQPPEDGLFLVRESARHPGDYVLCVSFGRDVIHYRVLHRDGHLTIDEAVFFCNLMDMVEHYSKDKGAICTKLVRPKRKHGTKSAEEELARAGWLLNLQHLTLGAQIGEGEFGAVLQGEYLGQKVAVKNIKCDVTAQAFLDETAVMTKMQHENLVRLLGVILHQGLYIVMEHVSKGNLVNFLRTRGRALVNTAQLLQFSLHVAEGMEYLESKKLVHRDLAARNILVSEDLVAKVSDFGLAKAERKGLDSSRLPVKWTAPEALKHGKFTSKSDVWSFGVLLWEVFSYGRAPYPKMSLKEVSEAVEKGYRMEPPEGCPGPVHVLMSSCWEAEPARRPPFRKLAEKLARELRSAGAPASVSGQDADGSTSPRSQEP

Compound: N#C/C(=C\c1ccc(O)c(O)c1)C(=O)NCc1ccccc1
- residual activity [1]: 90.8%
- residual activity [2]: 96.4%
- residual activity [3]: 104%
- residual activity [4]: 97.4%
- residual activity [5]: 99.4%
- residual activity [6]: 120%
- residual activity [7]: 103%
- residual activity [8]: 110%
- residual activity [9]: 106%
- residual activity [10]: 103%
- residual activity [11]: 72.4%
- residual activity [12]: 95.7%
- residual activity [13]: 99.7%
- residual activity [14]: 80.9%
- residual activity [15]: 108%
- residual activity [16]: 101%
- residual activity [17]: 103%
- residual activity [18]: 101%
- residual activity [19]: 101%
- residual activity [20]: 96.3%
- residual activity [21]: 93.8%
- residual activity [22]: 98%
- residual activity [23]: 93.8%
- residual activity [24]: 86.3%
- residual activity [25]: 87.9%
- residual activity [26]: 97.3%
- residual activity [27]: 90%
- residual activity [28]: 99.4%
- residual activity [29]: 92.6%
- residual activity [30]: 105%
- residual activity [31]: 90.7%
- residual activity [32]: 86.7%
- residual activity [33]: 102%
- residual activity [34]: 100%
- residual activity [35]: 99.1%
- residual activity [36]: 95.7%
- residual activity [37]: 103%
- residual activity [38]: 123%
- residual activity [39]: 105%
- residual activity [40]: 103%
- residual activity [41]: 71.2%

Compound: COc1cc(Nc2c(C#N)cnc3cc(OCCCN4CCN(C)CC4)c(OC)cc23)c(Cl)cc1Cl
- residual activity [1]: 90.7%
- residual activity [3]: 94.6%
- residual activity [4]: 85.1%
- residual activity [5]: 112%
- residual activity [42]: 91.9%
- residual activity [6]: 113%
- residual activity [7]: 98.1%
- residual activity [8]: 49.5%
- residual activity [9]: 98.3%
- residual activity [10]: 104%
- residual activity [11]: 3.84%
- residual activity [12]: 4.38%
- residual activity [13]: 17.4%
- residual activity [14]: 1.53%
- residual activity [15]: 109%
- residual activity [16]: 99.5%
- residual activity [17]: 101%
- residual activity [18]: 96.3%
- residual activity [19]: 89%
- residual activity [20]: 36.9%
- residual activity [21]: 99%
- residual activity [23]: 109%
- residual activity [24]: 140%
- residual activity [25]: 98.7%
- residual activity [26]: 15.2%
- residual activity [27]: 11.4%
- residual activity [28]: 105%
- residual activity [29]: 52.1%
- residual activity [30]: 100%
- residual activity [31]: 99.2%
- residual activity [32]: 93.1%
- residual activity [33]: 80.4%
- residual activity [34]: 11%
- residual activity [35]: 85.1%
- residual activity [36]: 65.4%
- residual activity [37]: 71.3%
- residual activity [38]: 96.1%
- residual activity [39]: 92.2%
- residual activity [40]: 110%
- residual activity [41]: 100%
